According to ChEMBL document CHEMBL5346920, “Development of the "hidden" multi-target-directed ligands by AChE/BuChE for the treatment of Alzheimer's disease” (Eur J Med Chem, 2023):
Calls of active or inactive are those of the source. The rule behind the calls is not given here.

Columns and labels:
[1] = (§1) Cytotoxicity against mouse BV-2 cells assessed as cell viability at 30 uM by CCK8 assay; type: toxicity, cell-based; details: BV-2 cells, read-out: Activity
[2] = biological target: Amyloid-beta precursor protein (Homo sapiens) (UniProt P05067); assay: Inhibition of self-induced Amyloid beta (1 to 42) (unknown origin) aggregation at 25 uM incubated for 24 hrs by thioflavin T-based fluorescence analysis
[3] = Metal chelating activity assessed as compound-Cu2+ complex formation by measuring inhibition of Cu2+-induced amyloid beta (1 to 42) aggregation at 25 uM by thioflavin T-based fluorescence analysis
[4] = Metal chelating activity assessed as compound-Fe2+ complex formation at 37.5 uM incubated for 30 mins in presence of FeSO4 by UV-Vis spectrometry
BV-2 [5] = assay: Anti-inflammatory activity against LPS-stimulated mouse BV-2 cells assessed as inhibition of LPS-induced IL-6 production incubated for 24 hrs in presence of LPS; type: functional, cell-based; details: dose 1-9 µM
[6] = biological target: T1, Amine oxidase [flavin-containing] A (Homo sapiens, UniProt P21397); assay: Inhibition of human recombinant MAO-A expressed in baculovirus-infected BTI cells using kynuramine as substrate incubated for 30 mins by fluorescence based analysis
T1 sequence (P21397 whole entry): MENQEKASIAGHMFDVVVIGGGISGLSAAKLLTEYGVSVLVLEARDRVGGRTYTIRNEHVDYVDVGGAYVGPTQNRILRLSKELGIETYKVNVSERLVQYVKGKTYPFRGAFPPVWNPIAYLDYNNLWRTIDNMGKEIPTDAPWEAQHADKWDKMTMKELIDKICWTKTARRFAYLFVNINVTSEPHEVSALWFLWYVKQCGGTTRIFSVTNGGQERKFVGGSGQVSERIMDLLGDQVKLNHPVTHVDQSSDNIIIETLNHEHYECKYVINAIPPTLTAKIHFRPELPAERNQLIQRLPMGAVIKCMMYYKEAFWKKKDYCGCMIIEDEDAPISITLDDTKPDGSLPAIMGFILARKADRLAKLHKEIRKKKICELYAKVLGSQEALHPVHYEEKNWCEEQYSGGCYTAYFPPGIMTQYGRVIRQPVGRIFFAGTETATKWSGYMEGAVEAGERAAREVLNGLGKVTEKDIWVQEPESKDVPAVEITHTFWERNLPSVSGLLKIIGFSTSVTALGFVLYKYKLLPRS

BV-2 [7] = assay: Anti-inflammatory activity against LPS-stimulated mouse BV-2 cells assessed as inhibition of LPS-induced NO production incubated for 24 hrs in presence of LPS; type: functional, cell-based; details: dose 1-9 µM
[8] = Stability of the compound in rat plasma assessed as parent compound remaining at 10 ug/ml measured after 3 hrs by UPLC-MS/MS analysis; type: ADME, cell-free; details: at 10 µg/mL, read-out: Stability
Acetylcholinesterase = Acetylcholinesterase (Electrophorus electricus, UniProt O42275); assay: Inhibition of electric eel AChE using acetylthiocholine chloride as substrate by Ellman's method
[9] = Stability of the compound in rat liver microsomes assessed as parent compound remaining at 10 ug/ml measured after 60 mins by UPLC-MS/MS analysis; type: ADME, Microsome; details: at 10 µg/mL, read-out: Stability
[10] = Stability of the compound in artificial intestinal juice assessed as parent compound remaining at 1 mg/ml measured after 8 hrs by UPLC-MS/MS analysis; type: ADME; details: read-out: Stability
[11] = Permeability of the compound at 100 ug/ml incubated for 18 hrs by PAMPA assay; type: ADME; details: dose 100 µg/ml, read-out: permeability
[12] = Stability of the compound in artificial gastric juice assessed as parent compound remaining at 1 mg/ml measured after 8 hrs by UPLC-MS/MS analysis; type: ADME; details: read-out: Stability
[13] = Stability of the compound in blank intestinal juice assessed as parent compound remaining at 1 mg/ml measured after 8 hrs by UPLC-MS/MS analysis; type: ADME; details: read-out: Stability
[14] = Stability of the compound in blank gastric juice assessed as parent compound remaining at 1 mg/ml measured after 8 hrs by UPLC-MS/MS analysis; type: ADME; details: read-out: Stability
[15] = Metal chelating activity assessed as compound-Cu2+ complex formation by measuring small fiber aggregates incubated for 24 hrs by transmission electron microscopy
PC-12 [16] = assay: Neuroprotective activity against Amyloid beta(25 to 35)-induced cell injury in rat PC12 cells assessed as cell viability at 10 uM pretreated for 2 hrs followed by incubation with Abeta(25 to 35) for 24 hrs by CCK-8 assay (reference value: 41 to 58.6%); type: functional; details: time 26 hrs, read-out: Activity
PC-12 [17] = assay: Neuroprotective activity against Amyloid beta(25 to 35)-induced cell injury in rat PC12 cells assessed as cell viability at 5 uM pretreated for 2 hrs followed by incubation with Abeta(25 to 35) for 24 hrs by CCK-8 assay (reference value: 41 to 58.6%); type: functional; details: time 26 hrs, read-out: Activity
[18] = Metal chelating activity assessed as compound-Zn2+ complex formation at 37.5 uM incubated for 30 mins in presence of ZnCl2 by UV-Vis spectrometry
BV-2 [19] = assay: Cytotoxicity against mouse BV-2 cells assessed as reduction in cell viability at 10 uM by CCK8 assay; type: toxicity, cell-based; details: bv-2, 10 µM
Homo sapiens = organism: Homo sapiens; assay: Selectivity index, ratio of IC50 for inhibition of human recombinant MAO-A expressed in baculovirus-infected BTI cells to IC50 for inhibition of human recombinant MAO-B expressed in baculovirus-infected BTI cells
[20] = biological target: T2, Amine oxidase [flavin-containing] B (Homo sapiens, UniProt P27338); assay: Inhibition of human recombinant MAO-B expressed in baculovirus-infected BTI cells using kynuramine as substrate incubated for 30 mins by fluorescence based analysis
T2 sequence (P27338 whole entry): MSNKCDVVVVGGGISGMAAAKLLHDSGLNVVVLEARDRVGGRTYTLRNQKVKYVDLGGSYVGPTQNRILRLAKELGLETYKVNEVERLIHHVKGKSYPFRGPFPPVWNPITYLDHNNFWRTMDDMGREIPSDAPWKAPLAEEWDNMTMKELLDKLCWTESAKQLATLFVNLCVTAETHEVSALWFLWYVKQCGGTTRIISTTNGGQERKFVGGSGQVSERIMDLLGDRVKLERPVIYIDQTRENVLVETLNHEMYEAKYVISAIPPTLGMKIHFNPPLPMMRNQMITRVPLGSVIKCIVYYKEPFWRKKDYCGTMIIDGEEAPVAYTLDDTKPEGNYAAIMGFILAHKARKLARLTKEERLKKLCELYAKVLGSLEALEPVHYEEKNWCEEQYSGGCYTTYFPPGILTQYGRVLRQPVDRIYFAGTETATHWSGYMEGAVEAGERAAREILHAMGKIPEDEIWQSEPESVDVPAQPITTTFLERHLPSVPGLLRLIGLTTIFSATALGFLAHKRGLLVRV

[21] = Metal chelating activity assessed as compound-Al3+ complex formation by measuring maximum absorption wavelength shift from 316 to 434 nm at 37.5 uM incubated for 30 mins in presence of AlCl3 by UV-Vis spectrometry
PC-12 [22] = assay: Cytotoxicity against rat PC-12 cells assessed as cell viability at 40 uM by CCK-8 assay; type: toxicity, cell-based; details: pc-12, 40 µM
BV-2 [23] = assay: Anti-inflammatory activity against LPS-stimulated mouse BV-2 cells assessed as inhibition of LPS-induced IL-1 beta production incubated for 24 hrs in presence of LPS; type: functional, cell-based; details: dose 1-9 µM
[24] = Metal chelating activity assessed as compound-Cu2+ complex formation by measuring maximum absorption wavelength shift from 316 to 446 nm at 37.5 uM incubated for 30 mins in presence of CuCl2 by UV-Vis spectrometry
[25] = Metal chelating activity assessed as compound-Cu2+ complex formation at stoichiometric ratio of 1:1 at 37.5 uM in presence of CuCl2 by UV-Vis spectrometry
[26] = biological target: Cholinesterase (Equus caballus) (UniProt P81908); assay: Inhibition of equine serum BuChE using butyrylthiocholine chloride as substrate at 25 uM by Ellman's method; type: cell-free
PC-12 [27] = assay: Neuroprotective activity against Amyloid beta(25 to 35)-induced cell injury in rat PC12 cells assessed as cell viability at 20 uM pretreated for 2 hrs followed by incubation with Abeta(25 to 35) for 24 hrs by CCK-8 assay (reference value: 41 to 58.6%); type: functional; details: time 26 hrs, read-out: Activity
BV-2 [28] = assay: as §1; type: toxicity, cell-based; details: bv-2, 30 µM
BV-2 [29] = assay: Anti-inflammatory activity against LPS-stimulated mouse BV-2 cells assessed as inhibition of LPS-induced IL-1 beta production by measuring IL-beta level at 1 uM incubated for 24 hrs in presence of LPS (reference value: 221.3 pg/ml); type: functional
BV-2 [30] = assay: Anti-inflammatory activity against LPS-stimulated mouse BV-2 cells assessed as inhibition of LPS-induced IL-6 production by measuring IL-6 level at 1 uM incubated for 24 hrs in presence of LPS (reference value: 1503.2 pg/ml); type: functional
BV-2 [31] = assay: Anti-inflammatory activity against LPS-stimulated mouse BV-2 cells assessed as inhibition of LPS-induced IL-6 production by measuring IL-6 level at 3 uM incubated for 24 hrs in presence of LPS (reference value: 1503.2 pg/ml); type: functional
BV-2 [32] = assay: Anti-inflammatory activity against LPS-stimulated mouse BV-2 cells assessed as inhibition of LPS-induced IL-1 beta production by measuring IL-beta level at 9 uM incubated for 24 hrs in presence of LPS (reference value: 221.3 pg/ml); type: functional
BV-2 [33] = assay: Anti-inflammatory activity against LPS-stimulated mouse BV-2 cells assessed as inhibition of LPS-induced IL-6 production by measuring IL-6 level at 9 uM incubated for 24 hrs in presence of LPS (reference value: 1503.2 pg/ml); type: functional
BV-2 [34] = assay: Anti-inflammatory activity against LPS-stimulated mouse BV-2 cells assessed as inhibition of LPS-induced IL-1 beta production by measuring IL-beta level at 3 uM incubated for 24 hrs in presence of LPS (reference value: 221.3 pg/ml); type: functional
[35] = biological target: Cholinesterase (Equus caballus) (UniProt P81908); assay: Reversible inhibition of equine serum BuChE assessed as enzyme activity using butyrylthiocholine chloride as substrate measured after dilution to 0.1XIC50 for 240 mins by Ellman's method; type: cell-free; set-up: scale not given: the % may be the effect or the level left
Danio rerio [36] = organism: Danio rerio; assay: Antialzheimer activity against AlCl3-induced Alzheimer's disease zebra fish model assessed as total distance moved at 8 uM treated for 24 hrs and measured after 24 hrs under dark environment (reference value: 312 cm); type: functional; details: time 48 hrs
Danio rerio [37] = organism: Danio rerio; assay: Neuroprotective activity against AlCl3-induced Alzheimer's disease zebra fish model assessed as inhibition of AlCl3-induced AChE activity at 8 uM treated for 24 hrs and measured after 24 hrs; type: functional, organism-based; details: time 48.0 hrs
Danio rerio [38] = organism: Danio rerio; assay: Neuroprotective activity against AlCl3-induced Alzheimer's disease zebra fish model assessed as increase in ACh content at 8 uM treated for 24 hrs and measured after 24 hrs; type: functional, organism-based; details: time 48.0 hrs
Danio rerio [39] = organism: Danio rerio; assay: Antialzheimer activity against AlCl3-induced Alzheimer's disease zebra fish model assessed as total distance moved at 8 uM treated for 24 hrs and measured after 24 hrs under alternating light dark stimuli conditions (reference value: 543 cm); type: functional; details: time 48 hrs
Danio rerio [40] = organism: Danio rerio; assay: Antialzheimer activity against AlCl3-induced Alzheimer's disease zebra fish model assessed as total distance moved at 8 uM treated for 24 hrs and measured after 24 hrs under light environment (reference value: 230 cm); type: functional; details: time 48 hrs

Chain of Cholinesterase (Equus caballus) (P81908 whole entry): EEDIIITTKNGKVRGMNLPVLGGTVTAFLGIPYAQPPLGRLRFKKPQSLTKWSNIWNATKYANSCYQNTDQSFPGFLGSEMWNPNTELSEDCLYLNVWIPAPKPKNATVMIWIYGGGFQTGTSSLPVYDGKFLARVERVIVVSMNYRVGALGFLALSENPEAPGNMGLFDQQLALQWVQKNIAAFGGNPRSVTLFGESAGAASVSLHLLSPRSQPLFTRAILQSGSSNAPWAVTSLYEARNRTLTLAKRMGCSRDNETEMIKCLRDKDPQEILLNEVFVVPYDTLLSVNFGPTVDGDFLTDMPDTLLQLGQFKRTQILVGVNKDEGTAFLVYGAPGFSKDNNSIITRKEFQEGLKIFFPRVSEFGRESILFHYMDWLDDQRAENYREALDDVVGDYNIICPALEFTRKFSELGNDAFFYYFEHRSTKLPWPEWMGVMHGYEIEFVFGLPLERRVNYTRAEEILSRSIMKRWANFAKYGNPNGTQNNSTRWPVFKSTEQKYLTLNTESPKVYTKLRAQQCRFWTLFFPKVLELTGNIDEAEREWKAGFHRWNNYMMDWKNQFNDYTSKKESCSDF
Chain of Amyloid-beta precursor protein (Homo sapiens) (P05067 whole entry): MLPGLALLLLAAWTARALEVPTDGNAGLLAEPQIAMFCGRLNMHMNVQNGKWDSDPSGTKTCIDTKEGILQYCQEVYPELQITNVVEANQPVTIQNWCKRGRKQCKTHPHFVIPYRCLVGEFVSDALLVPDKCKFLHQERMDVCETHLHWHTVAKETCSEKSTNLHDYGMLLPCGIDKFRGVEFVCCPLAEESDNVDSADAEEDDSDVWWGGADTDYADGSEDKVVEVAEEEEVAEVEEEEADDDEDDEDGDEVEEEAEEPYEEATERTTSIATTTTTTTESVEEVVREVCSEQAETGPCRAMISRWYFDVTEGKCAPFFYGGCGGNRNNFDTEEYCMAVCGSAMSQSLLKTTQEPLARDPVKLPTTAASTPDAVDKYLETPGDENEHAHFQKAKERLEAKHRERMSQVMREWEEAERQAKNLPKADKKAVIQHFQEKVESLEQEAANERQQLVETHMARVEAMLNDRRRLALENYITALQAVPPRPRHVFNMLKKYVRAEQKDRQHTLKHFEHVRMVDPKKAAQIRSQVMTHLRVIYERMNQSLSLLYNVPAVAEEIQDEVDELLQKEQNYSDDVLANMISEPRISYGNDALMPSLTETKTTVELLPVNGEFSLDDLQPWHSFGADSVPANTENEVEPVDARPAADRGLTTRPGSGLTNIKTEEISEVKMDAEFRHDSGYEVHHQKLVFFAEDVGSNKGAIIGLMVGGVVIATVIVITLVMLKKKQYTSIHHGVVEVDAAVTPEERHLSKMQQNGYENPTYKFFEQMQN
Chain of Acetylcholinesterase (O42275 whole entry): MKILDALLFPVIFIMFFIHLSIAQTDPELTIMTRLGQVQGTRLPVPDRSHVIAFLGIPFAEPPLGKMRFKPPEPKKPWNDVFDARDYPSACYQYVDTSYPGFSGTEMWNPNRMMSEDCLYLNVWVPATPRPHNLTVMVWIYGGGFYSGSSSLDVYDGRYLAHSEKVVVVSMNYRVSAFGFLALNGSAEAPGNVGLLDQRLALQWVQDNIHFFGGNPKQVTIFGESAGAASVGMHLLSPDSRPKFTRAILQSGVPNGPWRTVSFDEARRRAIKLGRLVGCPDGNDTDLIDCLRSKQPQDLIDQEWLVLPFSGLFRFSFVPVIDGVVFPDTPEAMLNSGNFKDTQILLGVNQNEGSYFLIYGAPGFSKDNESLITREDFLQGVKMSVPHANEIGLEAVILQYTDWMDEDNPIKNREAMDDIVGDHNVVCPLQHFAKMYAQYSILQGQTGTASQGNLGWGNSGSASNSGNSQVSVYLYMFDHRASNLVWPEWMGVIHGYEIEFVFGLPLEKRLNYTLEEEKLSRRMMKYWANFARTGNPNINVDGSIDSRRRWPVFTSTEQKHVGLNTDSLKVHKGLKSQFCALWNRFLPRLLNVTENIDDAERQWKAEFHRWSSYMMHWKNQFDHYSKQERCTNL

| SMILES | viability at 30 µM [1] [%] | inhibition [2] [%] | IC50 [6] [µM] | Activity (BV-2 [7]) | viability at 10 µM (PC-12 [16]) [%] | viability at 5 µM (PC-12 [17]) [%] | Activity (BV-2 [19]) | Ratio IC50 (Homo sapiens) | IC50 [20] [µM] | Activity (PC-12 [22]) | viability at 20 µM (PC-12 [27]) [%] | Activity (BV-2 [29]) [pg/mL] | Activity (BV-2 [30]) [pg/mL] | Activity (BV-2 [31]) [pg/mL] | Activity (BV-2 [32]) [pg/mL] | Activity (BV-2 [33]) [pg/mL] | Activity (BV-2 [34]) [pg/mL] | further results |
| --- | --- | --- | --- | --- | --- | --- | --- | --- | --- | --- | --- | --- | --- | --- | --- | --- | --- | --- |
| O=C(/C=C/c1ccc(F)cc1)c1ccccc1O | 80.1 | 76.9 | 38.3 | Dose-Dependent Effect | 89.9 | 80.6 | Non-Toxic | 57.2 | 0.67 | Non-Toxic | 99.1 |  |  |  |  |  |  | inhibition [3]: 86.5%; Activity [4]: inactive; Activity (BV-2 [5]): Dose-Dependent Effect; remaining at 3 h, 10 ug/ml [8]: 101%; IC50 (Acetylcholinesterase): 25.7 µM; remaining at 1 h, 10 ug/ml [9]: 97.2%; remaining at 8 h, 1 mg/ml [10]: 96.5%; Papp at 18 h, 100 ug/ml [11]: 11.5 ×10⁻⁶ cm/s; remaining at 8 h, 1 mg/ml [12]: 99%; remaining at 8 h, 1 mg/ml [13]: 96%; remaining at 8 h, 1 mg/ml [14]: 97%; Activity [15]: Active; Activity [18]: inactive; Activity [21]: Active; Activity (BV-2 [23]): Dose-Dependent Effect; Activity [24]: Active; Activity [25]: Active; inhibition [26]: 10.6% |
| CC(C(=O)O)c1ccc(-c2ccccc2)c(F)c1 (centres undefined) [FLURBIPROFEN] |  |  |  |  |  |  |  |  |  |  |  | 185.6 | 1280.5 | 1096.7 | 92.9 | 808.6 | 149.8 | Activity (BV-2 [28]): Non-Toxic |
| COc1cc2c(cc1OC)C(=O)C(CC1CCN(Cc3ccccc3)CC1)C2 (centres undefined) [DONEPEZIL] |  |  |  |  |  |  |  |  |  |  |  |  |  |  |  |  |  | Activity [35]: 118%; Activity (Danio rerio [36]): 325 cm; Activity (Danio rerio [37]): Active; Activity (Danio rerio [38]): Active; Activity (Danio rerio [39]): 671 cm; Activity (Danio rerio [40]): 334 cm |
| O=C(/C=C/c1ccc(O)cc1)c1ccccc1O | 71.5 | 80.7 | 66.1 | Dose-Dependent Effect | 91 | 88.9 | Non-Toxic | 82.6 | 0.8 | Non-Toxic | 94.6 | 147.6 | 763.2 | 489.3 | 50.9 | 337.5 | 77.6 |  |
